# Patent US8609680B2, “2,3-dihydro-1H-inden-1-yl-2,7-diazaspiro[3.5] nonane derivatives” (Pfizer Inc., priority 2010, dated 2013)
# Like-named read-outs stand apart in the source and are kept apart here.
# Molecular target: T1, human GHSR1a (Homo sapiens, UniProt Q92847)
# T1 construct: expressed in transfected cells; host or cells: HEK293 Tetracycline-Inducible cell line, used as membranes
# Assay: Human Ghrelin SPA Binding Assay
# Excerpt: The SPA format was utilized for high throughput screening of test compounds and filter binding served for more comprehensive binding characterization.
# Human Ghrelin SPA Binding Assay
# [1] = SPA format, [125I] ghrelin displacement, human GHSR1a membranes from HEK293 Tetracycline-Inducible cell line
# T1 sequence (Q92847 whole entry): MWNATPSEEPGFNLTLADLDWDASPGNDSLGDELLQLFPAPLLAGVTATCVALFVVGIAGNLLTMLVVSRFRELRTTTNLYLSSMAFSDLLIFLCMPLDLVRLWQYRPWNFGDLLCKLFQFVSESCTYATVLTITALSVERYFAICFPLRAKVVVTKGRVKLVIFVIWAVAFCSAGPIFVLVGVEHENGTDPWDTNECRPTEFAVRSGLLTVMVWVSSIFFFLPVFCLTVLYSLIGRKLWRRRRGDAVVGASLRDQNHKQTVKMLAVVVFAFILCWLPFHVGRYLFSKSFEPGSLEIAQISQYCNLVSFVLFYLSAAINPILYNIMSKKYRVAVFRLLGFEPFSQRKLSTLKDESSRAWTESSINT
Compound,IC50,Ki,IC50 [1]
COc1ccc(CC(=O)N2CCC3(CC2)CN(C2CCc4cc(-c5ncc(C)cn5)ccc42)C3)cc1 (racemic) [Example 1E],34.1 nM,–,–
COc1ccc(CC(=O)N2CCC3(CC2)CN(C2CCc4cc(-c5nccs5)ccc42)C3)nc1 (racemic) [Example 1F],–,22.8 nM,–
COc1ccc(CC(=O)N2CCC3(CC2)CN(C2CCc4cc(Oc5ccccc5)ccc42)C3)nc1 (racemic) [Example 1I],36.6 nM,29.5 nM,–
Cc1cn2cc(CC(=O)N3CCC4(CC3)CN(C3CCc5cc(-c6ncccn6)ccc53)C4)nc2s1 (stereo not shown) [Example 1B],–,4.59 nM,3.79 nM
O=C(Cc1n[nH]c2ccccc12)N1CCC2(CC1)CN(C1CCc3cc(-c4ncccn4)ccc31)C2 (stereo not shown) [Example 1C],16.4 nM,14.2 nM,–
COc1ccc(CC(=O)N2CCC3(CC2)CN(C2CCc4cc(-c5ccnc(C)n5)ccc42)C3)cc1 (stereo not shown) [Example 1D],19.4 nM,–,–
COc1ccc(CC(=O)N2CCC3(CC2)CN(C2CCc4cc(-c5nccs5)ccc42)C3)nc1 (stereo not shown) [Example 1F-1],–,3.98 nM,5.46 nM
COc1ccc(CC(=O)N2CCC3(CC2)CN(C2CCc4cc(-c5ncc(C)s5)ccc42)C3)nc1 (stereo not shown) [Example 1G],7.56 nM,8.67 nM,–
Cc1nn2cc(CC(=O)N3CCC4(CC3)CN(C3CCc5cc(-n6nccn6)ccc53)C4)nc2s1 (stereo not shown) [Example 1H],11.1 nM,10.4 nM,–
COc1ccc(CC(=O)N2CCC3(CC2)CN(C2CCc4cc(-c5nccc(C)n5)ccc42)C3)cc1 (stereo not shown) [Example 1J],5.25 nM,5.12 nM,–
Cc1ccnc(-c2ccc3c(c2)CCC3N2CC3(CCN(C(=O)Cc4cn5cc(C)sc5n4)CC3)C2)n1 (stereo not shown) [Example 1K],25.9 nM,–,–

# The remaining lines, values ahead:
IC50,Ki,IC50 [1],Compound
6.75 nM,–,–,COc1ccc(CC(=O)N2CCC3(CC2)CN(C2CCc4cc(-c5ccnc(C)c5)ccc42)C3)nc1 (racemic) [Example 2B]
21.4 nM,–,–,COc1ccc(CC(=O)N2CCC3(CC2)CN(C2CCc4cc(-c5ccc(C)cn5)ccc42)C3)nc1 (racemic) [Example 2D]
35.2 nM,63.6 nM,–,COc1ccc(CC(=O)N2CCC3(CC2)CN(C2CCc4cc(-c5ncc(OC)cn5)ccc42)C3)nc1 (racemic) [Example 2E]
6.22 nM,–,–,COc1ccc(CC(=O)N2CCC3(CC2)CN(C2CCc4cc(-c5cc(C)ccn5)ccc42)C3)nc1 (racemic) [Example 2G]
7.02 nM,6.15 nM,–,"O=C(Cc1ccc(C2CC2)cc1)N1CCC2(CC1)CN(C1CCc3cc(-c4ncccn4)ccc31)C2 (racemic) [Example 5A, 7-[(4-Cyclopropylphenyl)acetyl]-2-(5-pyrimidin-2-yl-2,3-dihydro-1H-inden-1-yl)-2,7-diazaspiro[3.5]nonane]"
5.9 nM,–,–,O=C(Cc1cc2ccccn2n1)N1CCC2(CC1)CN(C1CCc3cc(-c4ncccn4)ccc31)C2 (racemic) [Example 5H]
8.57 nM,9.26 nM,–,O=C(Cc1cc2n(n1)CCCC2)N1CCC2(CC1)CN(C1CCc3cc(-c4ncccn4)ccc31)C2 (racemic) [Example 5I]
32.9 nM,28.8 nM,–,CCc1cc(-c2ccc3c(c2)CC[C@H]3N2CC3(CCN(C(=O)Cc4ccc(OC)cc4C#N)CC3)C2)ncn1 [Example 3AB]
40.5 nM,33.8 nM,–,COc1ccc(CC(=O)N2CCC3(CC2)CN([C@@H]2CCc4cc(-c5cc(C#N)ncn5)ccc42)C3)nc1 [Example 3AC]
73.2 nM,68.9 nM,–,COc1ccc(CC(=O)N2CCC3(CC2)CN([C@@H]2CCc4cc(-c5ccncn5)ccc42)C3)nc1 [Example 3AE]
40.1 nM,33.1 nM,–,COc1ccc(CC(=O)N2CCC3(CC2)CN([C@@H]2CCc4cc(-c5ncco5)ccc42)C3)nc1 [Example 3AG]
90.2 nM,72.8 nM,–,O=C(Cc1ccc(C(F)(F)F)cc1)N1CCC2(CC1)CN([C@@H]1CCc3cc(-c4ncccn4)ccc31)C2 [Example 3AH]
293 nM,261 nM,–,COc1ccc(CC(=O)N2CCC3(CC2)CN([C@@H]2CCc4ccccc42)C3)cc1 [Example 3AJ]
